According to patent US20240368174A1, “Antiviral Heterocyclic Compounds” (Enanta Pharmaceuticals, Inc., priority 2023, published 2024):

The compounds below were run on HMPV clinical isolate A2 strain TN 94-49 (assay: HMPV antiviral assay, Method 2 (LLC-MK2 cells with CP-100-356, ATP-Lite)). Details: human metapneumovirus, 168 h; hMPV A2 TN/94-49, LLC-MK2 cells with 4 μM CP-100-356, 7 days, ATP-Lite.
Format: cell-based
How it was run: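 EC50 comes from a four-parameter fit of percent cell viability (ATP-Lite, normalized to virus-only and cell-only wells) after 7 days at 37 °C. Infection used HMPV A2 TN 94-49 at MOI 0.16 in LLC-MK2 cells, with 2 μM P-gp inhibitor CP-100-356 and 2 μg/mL TPCK-trypsin final; dose range 200 nM top, 2.5-fold, 10 points, duplicate.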

SMILES | EC50 [nM]
COc1cc(C(=O)NC[C@](O)(c2cc3c(c(-c4cccc(F)c4Cl)n2)OC[C@]3(C)C(N)=O)C2(F)CC2)cc2cn(C3CC3)nc12 [Example 617] | < 200
COc1cc(C(=O)NC[C@](O)(c2cc3c(c(-n4ncc5c(F)cccc54)n2)OC[C@]3(C)C(N)=O)C2CC2)cc2cc(C3CC3)nn12 [Example 626] | < 200
COc1cc(C(=O)NC[C@](O)(c2cc3c(c(-c4cccc(F)c4Cl)n2)OC[C@]3(C)C(N)=O)C2CC2)cc2cc(C3CC3)nn12 [Example 632] | < 200
COc1cc(C(=O)NC[C@@](O)(c2ccccc2)c2cc3c(c(-n4ncc5c(F)cccc54)n2)OC[C@]3(C)C(N)=O)cc2sc(N)nc12 [Example 633] | > 200
COc1cc(C(=O)NC[C@@](O)(c2ccccc2)c2cc3c(c(-n4ncc5c(F)cccc54)n2)OC[C@]3(C)C(N)=O)cn2cc(C3CC3)nc12 [Example 634] | < 200
COc1cc(-c2nc([C@@](O)(CNC(=O)c3cc(OC)c4nn(C5CC5)cc4c3)c3ccccc3)cc3c2OC[C@]3(C)C(N)=O)c(F)cn1 [Example 635] | < 200
COc1cc(C(=O)NC[C@@](O)(c2ccccc2)c2cc3c(c(-n4ncc5c(F)cccc54)n2)OC[C@]3(C)C(N)=O)cc2cn(C(F)F)nc12 [Example 636] | < 200
[2H]C([2H])([2H])c1nc2c(OC)cc(C(=O)NC[C@@](O)(c3ccccc3)c3cc4c(c(-n5ncc6c(F)cccc65)n3)OC[C@]4(C)C(N)=O)cc2s1 [Example 637] | < 200
COc1cc(-c2nc([C@@](O)(CNC(=O)c3cc(OC)c4nc(C5CC5)oc4c3)c3ccccc3)cc3c2OC[C@]3(C)C(N)=O)c(F)cn1 [Example 638] | < 200
COc1cc(-c2nc([C@@](O)(CNC(=O)c3cc(OC)n4nc(C5CC5)cc4c3)c3ccccc3)cc3c2OC[C@]3(C)C(N)=O)c(F)cn1 [Example 639] | < 200
COc1cc(-c2nc([C@@](O)(CNC(=O)c3cc(OC)c4nn(C5(F)CC5)cc4c3)c3ccccc3)cc3c2OC[C@]3(C)C(N)=O)c(F)cn1 [Example 640] | < 200
COc1cc(C(=O)NC[C@](O)(c2cc3c(c(-n4ncc5c4CCCC5)n2)OC[C@]3(C)C(N)=O)C2CC2)cc2cn(C(F)F)nc12 [Example 641] | > 200
COc1cc(C(=O)NC[C@](O)(c2cc3c(c(-n4ncc5c4CCCC5)n2)OC[C@]3(C)C(N)=O)C2CC2)cc2cn(C3CC3)nc12 [Example 642] | > 200
COc1cc(C(=O)NC[C@](O)(c2cc3c(c(-n4ncc5c4CCCC5)n2)OC[C@]3(C)C(N)=O)C2CC2)cc2cn(C3(F)CC3)nc12 [Example 643] | > 200
COc1cc(C(=O)NC[C@](O)(c2cc3c(c(-n4ncc5c4CCCC5)n2)OC[C@]3(C)C(N)=O)C2CC2)cc2oc(C3CC3)nc12 [Example 644] | > 200
COc1nccc(-c2nc([C@@](O)(CNC(=O)c3cc(OC)c4nc(C5CC5)oc4c3)C3(F)CC3)cc3c2OC[C@]3(C)C(N)=O)c1Cl [Example 645] | < 200
COc1cc(C(=O)NC[C@@](O)(c2ccc(F)cc2)c2cc3c(c(-c4ccnc(C)c4Cl)n2)OC[C@]3(C)C(N)=O)cc2cn(C3CC3)nc12 [Example 646] | < 200
COc1cc(C(=O)NC[C@@](O)(c2ccc(F)cc2)c2cc3c(c(-c4ccnc(C)c4Cl)n2)OC[C@]3(C)C(N)=O)cc2cn(C3(F)CC3)nc12 [Example 647] | < 200
COc1cc(C(=O)NC[C@@](O)(c2ccc(F)cc2)c2cc3c(c(-c4ccnc(C)c4Cl)n2)OC[C@]3(C)C(N)=O)cc2cn(C(F)F)nc12 [Example 648] | > 200
COc1cc(C(=O)NC[C@@](O)(c2ccc(F)cc2)c2cc3c(c(-c4ccnc(C)c4Cl)n2)OC[C@]3(C)C(N)=O)cc2oc(C3CC3)nc12 [Example 649] | < 200
C[C@]1(C(N)=O)COc2c1cc([C@@](O)(CNC(=O)c1cc(OC3CC3)c3nn(C4CC4)cc3c1)C1CC1)nc2-n1ncc2c(F)cccc21 [Example 650] | < 200
C[C@]1(C(N)=O)COc2c1cc([C@@](O)(CNC(=O)c1cc(OC3CC3)c3nn(C4(F)CC4)cc3c1)C1CC1)nc2-n1ncc2c(F)cccc21 [Example 651] | < 200
C[C@]1(C(N)=O)COc2c1cc([C@@](O)(CNC(=O)c1cc(OC3CC3)c3nn(C(F)F)cc3c1)C1CC1)nc2-n1ncc2c(F)cccc21 [Example 652] | < 200
COc1nccc(-c2nc([C@@](O)(CNC(=O)c3cc(OC)c4nn(C5CC5)cc4c3)C3(F)CC3)cc3c2OC[C@]3(C)C(N)=O)c1Cl [Example 653] | < 200

Same assay, conditions: human metapneumovirus; hMPV A2 TN/94-49, LLC-MK2 cells with CP-100-356, Method 2

SMILES | EC50 [nM]
COc1nccc(-c2nc([C@@](O)(CNC(=O)c3cc(OC4CC4)c4nn(C5(F)CC5)cc4c3)C3CC3)cc3c2OC[C@]3(C)C(N)=O)c1Cl [Example 592] | < 200
C[C@]1(C(N)=O)COc2c1cc([C@@](O)(CNC(=O)c1cc(OC3CC3)c3nn(C4CC4)cc3c1)C(F)(F)F)nc2-c1ccnc(C(F)(F)F)c1Cl [Example 593] | < 200
C[C@]1(C(N)=O)COc2c1cc([C@@](O)(CNC(=O)c1cc(OC3CC3)c3nn(C(F)F)cc3c1)C(F)(F)F)nc2-c1ccnc(C(F)(F)F)c1Cl [Example 594] | < 200
C[C@]1(C(N)=O)COc2c1cc([C@@](O)(CNC(=O)c1cc(OC3CC3)c3nn(C4(F)CC4)cc3c1)C(F)(F)F)nc2-c1ccnc(C(F)(F)F)c1Cl [Example 595] | < 200
COc1cc(C(=O)NC[C@](O)(c2cc3c(c(-c4ccnc(C(F)(F)F)c4Cl)n2)OC[C@]3(C)C(N)=O)C(F)(F)F)cc2cc(C3CC3)nn12 [Example 596] | < 200
COc1cc(C(=O)NC[C@](O)(c2cc3c(c(-c4ccnc(C(F)(F)F)c4Cl)n2)OC[C@]3(C)C(N)=O)C(F)(F)F)cc2oc(C(F)F)nc12 [Example 597] | < 200
COc1cc(C(=O)NC[C@](O)(c2cc3c(c(-c4ccnc(C(F)(F)F)c4Cl)n2)OC[C@]3(C)C(N)=O)C(F)(F)F)cn2cc(C3CC3)nc12 [Example 598] | < 200
Cc1nccc(-c2nc([C@@](O)(CNC(=O)c3cc(OC4CC4)c4nn(C5CC5)cc4c3)C3CC3)cc3c2OC[C@]3(C)C(N)=O)c1Cl [Example 600] | < 200
Cc1nccc(-c2nc([C@@](O)(CNC(=O)c3cc(OC4CC4)c4nn(C(F)F)cc4c3)C3CC3)cc3c2OC[C@]3(C)C(N)=O)c1Cl [Example 601] | < 200
Cc1nccc(-c2nc([C@@](O)(CNC(=O)c3cc(OC4CC4)c4nn(C5(F)CC5)cc4c3)C3CC3)cc3c2OC[C@]3(C)C(N)=O)c1Cl [Example 602] | < 200
Cc1nccc(-c2nc([C@@](O)(CNC(=O)c3cc(OC4CC4)c4nn(C5CC5)cc4c3)c3cccc(F)c3)cc3c2OC[C@]3(C)C(N)=O)c1Cl [Example 603] | < 200
Cc1nccc(-c2nc([C@@](O)(CNC(=O)c3cc(OC4CC4)c4nn(C(F)F)cc4c3)c3cccc(F)c3)cc3c2OC[C@]3(C)C(N)=O)c1Cl [Example 604] | < 200
Cc1nccc(-c2nc([C@@](O)(CNC(=O)c3cc(OC4CC4)c4nn(C5(F)CC5)cc4c3)c3cccc(F)c3)cc3c2OC[C@]3(C)C(N)=O)c1Cl [Example 605] | < 200
COc1nccc(-c2nc([C@@](O)(CNC(=O)c3cc(OC4CC4)n4nc(C5CC5)cc4c3)C3CC3)cc3c2OC[C@]3(C)C(N)=O)c1Cl [Example 606] | < 200
COc1nccc(-c2nc([C@@](O)(CNC(=O)c3cc(OC4CC4)n4nc(C5CC5)cc4c3)C(F)(F)F)cc3c2OC[C@]3(C)C(N)=O)c1Cl [Example 607] | < 200
